Experimental data reported in US20030008843A1, “Bulking agents as satiety agents” (priority 2001, published 2003).

Assays:
[1] = ad libitum test lunch energy intake 1.5 hours after yoghurt pre-load, days 1 and 10 (Example 1); format: in vivo, human; conditions: for difference in average test meal energy intake versus control (significance): paired comparison; for difference in average test meal energy intake versus control (significance) / combined (pre-load and test lunch) energy intake versus control (significance): p<0.05; for combined (pre-load and test lunch) energy intake versus control (significance): post-hoc paired comparisons
Excerpt: Eight female and seven male subjects with mean ages ranging from about 29.5 to 30.7 yr. were used in the study. They were lean (having BMI of 21.6 Kg/m^2-23.8 Kg/m^2), and they exercised between 2-3 times per week. There were four experimental conditions that all subjects completed in a counterbalanced order with each condition separated by a one-week washout period. During each experimental condition, subjects were provided with either control or test yoghurts to consume as part of their normal diet for 10 consecutive days. The four experimental conditions differed according to the type of carbohydrate added to the yoghurt consumed: [table] Volunteers were required to consume one portion (200 g) of yoghurt on each of the 10 days. Therefore, energy content of the yoghurts varied between the four yoghurt formulations while weight was held constant. Subjects consumed the yoghurts for 10 consecutive days. However, days 2-9 were free-living during which time they were not required to visit the human appetite research unit (HARU), where the studies described hereinbelow were performed. On days 1 and 10 (test days), subjects were required to visit the HARU for a fixed breakfast at 8:30 a.m. and an ad libitum test lunch. The energy and nutrient content of the breakfast, was fixed for each of the conditions. Immediately after breakfast subjects were free to leave the unit and instructed to consume the yoghurt at 11:00am and not to consume any other food or drink during the breakfast-lunch interval. At 12:30 subjects returned to the unit for the ad libitum test lunch and were instructed to eat until a comfortable level of fullness. The food was weighed immediately before and after the test lunch to determine the energy and nutrient of food consumed. The test lunch was mixed composition (31% Fat, 53% Carbohydrate and 16% Protein) and consisted of sandwiches, […] fruit. Immediately after the test lunch subjects were provided with their yoghurts for days 2-9 and were instructed to return at 8:30 on day 10. On days 1 and 10, volunteers were provided with an ad libitum lunch 1.5 hours following consumption of the yoghurt pre-load.

[2] = after ingestion of 25 g xylitol; control 58±5 min; cited from earlier work
[3] = after oral preloading of 25 g xylitol with water, cited from earlier work
[4] = humans; cited from earlier work

| Structure (SMILES) | Suppression (%) in energy intake compared with the control yoghurt, All ([1]; all subjects, 25 g/day in 200 g yoghurt, test lunch 1.5 h after pre-load) | Suppression (%) in combined preload plus test meal energy intake compared with the control yoghurt, All ([1]; all subjects, energy content of pre-load accounted for) | Suppression (%) in combined preload plus test meal energy intake compared with the control yoghurt, Females ([1]; females, energy content of pre-load accounted for) | Suppression (%) in energy intake compared with the control yoghurt, Females ([1]; females, test lunch 1.5 h after pre-load) | Suppression (%) in combined preload plus test meal energy intake compared with the control yoghurt, Males ([1]; males, energy content of pre-load accounted for) | Suppression (%) in energy intake compared with the control yoghurt, Males ([1]; males, test lunch 1.5 h after pre-load) | difference in average test meal energy intake versus control (significance) [1] | difference in average test meal energy intake versus control (significance) ([1]; listed as xylitol) | combined (pre-load and test lunch) energy intake versus control (significance) [1] | combined (pre-load and test lunch) energy intake versus control (significance) ([1]; listed as xylitol) | gastric emptying T-1/2 [2] | reduction in calories versus control [3] | food intake ([3]; control 920±60 Kcal) | reduction of human absorption of fat [4] |
| --- | --- | --- | --- | --- | --- | --- | --- | --- | --- | --- | --- | --- | --- | --- |
| OC[C@@H](O)[C@H](O)[C@@H](O)CO [Xyl, Xylitol] | 11.9% | 14.8% | 11.6% | 6.4% | 16.1% | 15.3% | statistically significant | significant reduction | significantly lower | significant calorie reduction | 91 ± 7 min | 25% | 690 ± 45 kcal |  |
| CCCCCCCCCCC[C@@H](C[C@@H]1OC(=O)[C@H]1CCCCCC)OC(=O)[C@H](CC(C)C)NC=O [tetrahydrolipostatin] |  |  |  |  |  |  |  |  |  |  |  |  |  | 30% |
